# Source: patent US5540931A, “Methods for inducing site-specific immunosuppression and compositions of site specific immunosuppressants” (Hewitt; Charles W., priority 1994, dated 1996)
# Assays:
# [1] = tested on: contact hypersensitivity reactions of skin tissue; conditions: topical
# Source text: Rapamycin (0.01%), cyclosporine (0.1%), and rapamycin-cyclosporine (0.01%/0.1%) combined formulations, were applied in a trinary drug delivery system consisting of 1,2 propanediol, diethylene glycol monoethyl ether, and a glyceryl caprylate/caprate polyethylene glycol complex.
# To further elaborate, rapamycin (0.001%), cyclosporine (0.01%), and rapamycin-cyclosporine (0.001%/0.01%) combined formulations, were applied in a trinary drug delivery system consisting of 1,2 propanediol, diethylene glycol monoethyl ether, and a glyceryl caprylate/caprate polyethylene glycol complex (6:3:1).
# [2] = tested on: mixed lymphocyte responses; assay: In vitro site-specific mixed lymphocyte response; format: cell-based; conditions: FIGS. 14 A and B
structure (smiles),measurement,setting,value
"CO[C@H]1C[C@@H]2CC[C@@H](C)[C@@](O)(O2)C(=O)C(=O)N2CCCC[C@H]2C(=O)O[C@H]([C@H](C)C[C@@H]2CC[C@@H](O)[C@H](OC)C2)CC(=O)[C@H](C)/C=C(\C)[C@@H](O)[C@@H](OC)C(=O)[C@H](C)C[C@H](C)/C=C/C=C/C=C/1C [Rapamycin, rapamycin]",efficacy by local inflammatory immune phase (early versus late),[1]; contact dermatitis model,particularly efficacious during the late local inflammatory-immune phase
same,site-specific immune suppression in contact dermatitis at low concentrations,"[1]; rapamycin 0.001%, cyclosporine 0.01%, combination 0.001%/0.01%, trinary vehicle (6:3:1)",provided surprising site-specific immune suppression
same,local inflammatory/immune response in contact hypersensitivity,"[1]; rapamycin 0.01%, cyclosporine 0.1%, combination 0.01%/0.1%, 1,2 propanediol/Transcutol/Labrasol vehicle, FIG. 13B",inhibited local inflammatory/immune responses
same,site-specific immune suppression of primary or activated cellular immune responses,[2]; agent alone,provided potent site-specific immune suppression
same,efficacy by inflammatory immune phase (early versus late),[2]; local application,surprisingly efficacious with local application during both late and early inflammatory immune phases
